# Reference: patent publication US20250115595A1, “INHIBITORS OF HYPOXIA-INDUCIBLE FACTORS” (The Johns Hopkins University, priority 2021, published 2025)
# Columns and labels:
# HIF-1α and HIF-2α = test: HIF accumulation in hypoxic HUVECs; format: cell-based, human; settings: 10 μM, 4 hours
# Description: Vascular endothelial cells also secrete angiogenic mediators that contribute to the progression of diabetic eye disease (Y. Qin et al., Sci Adv 8, eabm1896 (2022)). Exposure of human umbilical vein endothelial cells (HUVECs) to hypoxia induced HIF-1α and HIF-2α protein accumulation, which was inhibited by 32-134D (FIG. 30). […] Of note, ANGPT2 and VE-PTP, two emerging targets for the treatment of diabetic eye disease, are both expressed specifically by vascular cells (G. Fachinger, et al., Oncogene 18, 5948-5953 (1999); P. C. Maisonpierre et al., Science 277, 55-60 (1997)).
# Cells culture and reagents: MIO-M1 cells were a gift from Dr. Astrid Limb (University College London, Institute of Ophthalmology, London, United Kingdom). MIO-M1 and HUVEC cells were cultured in DMEM with 10% (vol/vol) FBS (Quality Biological) and 1% penicillin/streptomycin (Cellgro). Hypoxia chambers were used to expose cells. Evans Blue (E2129) was purchased from Sigma-Aldrich.
# Immunoblot assays and ELISAs: Cell, neurosensory retina, and D120 retinal organoid lysates were subjected to 4-15% gradient SDS/PAGE (Invitrogen). Immunoblot assays were performed as previously described (X. Xin et al., 2013, Proc Natl Acad Sci USA 110, E3425-3434).
# [1] = tested on: Hep3B human HCC tumor xenografts; test: Hep3B tumor xenograft in nude mice; format: in vivo, mouse
# Protocol: Effects of 32-134D on Hep3B human HCC tumor xenografts. To analyze the effect of HIF inhibitor 32-134D on tumor xenograft growth, Hep3B cells were injected subcutaneously into immunodeficient mice and when tumors reached a volume of 150 mm3 (designated treatment day 1), the mice were treated with vehicle or 32-134D by daily intraperitoneal injection. […] Treatment with 32-134D for 17 days had no effect on mouse body weight (FIG. 6C), appearance or behavior. We treated additional mice with 32-134D and confirmed inhibition of tumor growth without effects on body weight (FIGS. 7A-C).
# Protocols were approved by the Johns Hopkins University Animal Care and Use Committee and used in accordance with the NIH Guide for the Care and Use of Laboratory Animals (National Research Council, 2011). Female nude mice (NCI Athymic NCr-nu/nu) and male C57L/J mice were purchased from Charles River and The Jackson Laboratory, respectively. Hep3B (8×106) and Hepa1-6 (1×107) cells were implanted subcutaneously in 6- to 8-week-old mice, and tumor volume was calculated: V=abc×0.52. For Hep3B tumor studies, once tumors reached 100-150 mm3, mice were randomized into groups to receive daily intraperitoneal injection of either vehicle or 32-134D. For Hepa1-6 tumors, mice were randomized to receive treatment once tumors reached a size of 50-100 mm3. Tumors were harvested 4 hours after the last treatment.
# Tumors were fixed in 10% formalin in phosphate buffer for 24 hours and placed in PBS the following day for paraffin embedding and sectioning. Anti-CD31 immunohistochemical staining, hematoxylin and eosin counterstaining, and whole slide scanning were performed by NDB Bio […].
# Human (EPO, SCF, SDF1a, VEGFA) and mouse (Cxcl1, Cxcl2, Cxcl9, Cxcl10, Il6, Il10, IL22, Vegfa) protein concentrations in tumor homogenates were determined using ELISA kits (Table 4) from Novus Biologicals. Optical density was obtained at 450 nm (corrected for readings at 570 nm) using the VICTOR Nivo plate reader (PerkinElmer). Sample protein concentration was calculated by linear regression from a standard curve.
# Hepa1-6 mouse HCC cells = test: RT-qPCR of hypoxia-induced mRNAs in Hepa1-6 cells; format: cell-based
# Protocol: Effects of 32-134D on Hepa1-6 mouse HCC cells and tumors. […] Thus, 32-134D inhibits the ability of hypoxic HCC cells to increase O2 delivery by stimulating angiogenesis (Angpt14, Pgf, Vegfa) or […] anaerobic metabolism by increasing glycolytic flux (Glut1, Pgk1, Ldha).
# Human Hep3B and mouse Hepa1-6 cells were purchased from ATCC and grown in high-glucose (4.5 mg/ml) Dulbecco's modified Eagle's medium supplemented with 10% (vol/vol) fetal bovine serum and […] at 37° C. in a 5% CO2/95% air incubator (20% O2). Human cell line identity was authenticated by analysis of short tandem repeats, and all cell lines were maintained mycoplasma free, using PCR-based assays conducted at the Johns Hopkins University Genetic Resources Core Facility. Cells were subjected to hypoxia in a controlled atmosphere chamber (PLAS Labs) with ambient gas mixture containing 1% O2 and 5% CO2.
# RNA was extracted using TRIzol Reagent (ThermoFisher). Quantitative Real-time PCR was conducted using SYBR Green PCR Master Mix (BioRad) and reactions were run using the BioRad thermal cycler (BioRad). The mRNA expression of target genes was normalized to the expression of 18S rRNA and the fold change (FC) was calculated based on the threshold cycle (Ct) as […]
smiles,measurement,setting,value
"Brc1ccc2c(-c3csc(-c4c[nH]c5c(Br)cccc45)n3)c[nH]c2c1 [Compound 32-134D, 4-(6-bromo-1H-indol-3-yl)-2-(7-bromo-1H-indol-3-yl)thiazole]",hypoxia-induced HIF-1α and HIF-2α protein accumulation,HIF-1α and HIF-2α,inhibited
same,tumor xenograft growth,[1]; 20 mg/kg daily intraperitoneal,Partial growth inhibition
same,tumor xenograft growth,[1]; 40 mg/kg daily intraperitoneal,maximal growth inhibition
same,mass of tumors harvested,[1]; 40 mg/kg/day,significantly decreased
same,tumor xenograft growth,[1]; 80 mg/kg daily intraperitoneal,maximal growth inhibition
same,blood vessel area in tumors (CD31 immunohistochemistry),"[1]; mouse, in vivo",markedly decreased
same,mouse body weight,[1]; treatment for 17 days,no effect
same,"tumor mRNAs encoding SCF, PGF, EPO, CD73, PDL1, VEGFA, SDF1","[1]; tumor RNA, RT-qPCR",significant decrease
same,"EPO, SCF, SDF1 and VEGFA protein in tumors","[1]; whole tumor lysates, ELISA",significantly decreased expression
same,hypoxia induction of B7h4 and Tim3 mRNAs,"Hepa1-6 mouse HCC cells; Hepa1-6 cells, 5 μM",hypoxia-induced in vehicle but not in 32-134D-treated cells
same,hypoxia induction of Pdl1 mRNA,"Hepa1-6 mouse HCC cells; Hepa1-6 cells, 5 μM",hypoxia-induced in vehicle-treated but not in 32-134D-treated cells
same,hypoxia-induced expression of Glut1 and Ldha,"Hepa1-6 mouse HCC cells; Hepa1-6 cells, 5 μM",blocked
same,"decreased Cxcl1, Il6 and Il10 mRNA levels",Hepa1-6 mouse HCC cells; cultured Hepa1-6 cells,not in cultured Hepa1-6 cells exposed to 32-134D
same,hypoxia-induced IL22 mRNA expression,Hepa1-6 mouse HCC cells; cultured Hepa1-6 cells,inhibited
same,"hypoxia-induced expression of mRNA encoding Angpt14, Pgf, Vegfa and Pgk1",Hepa1-6 mouse HCC cells; hypoxic Hepa1-6 cells,significant dose-dependent inhibition
